Measurements published in patent US20250066411A1, “GL[…] FOR L-SIGN” (priority 2022, published 2025).

Assays:
Type in all cases: binding
L-SIGN ECD [1] = target: T1, L-SIGN ECD (Homo sapiens, UniProt Q9H2X3); test: SPR competition experiments on a sensorchip functionalized with SARS-CoV-2 Spike protein, L-SIGN ECD co-injected; conditions: for IC50: 20 μM L-SIGN ECD co-injected, Spike HexaPro surface, 25° C., read-out: IC50 (inhibition of L-SIGN); for selectivity for L-SIGN over DC-SIGN: SPR competition, L-SIGN vs DC-SIGN ECD; for inhibits the L-SIGN receptor better than D-mannose: relative to D-mannose IC50
T1 construct: towards the extra cellular domain (ECD) of the DC-SIGN and L-SIGN receptors
T1 sequence (Q9H2X3 71-399 limits assumed): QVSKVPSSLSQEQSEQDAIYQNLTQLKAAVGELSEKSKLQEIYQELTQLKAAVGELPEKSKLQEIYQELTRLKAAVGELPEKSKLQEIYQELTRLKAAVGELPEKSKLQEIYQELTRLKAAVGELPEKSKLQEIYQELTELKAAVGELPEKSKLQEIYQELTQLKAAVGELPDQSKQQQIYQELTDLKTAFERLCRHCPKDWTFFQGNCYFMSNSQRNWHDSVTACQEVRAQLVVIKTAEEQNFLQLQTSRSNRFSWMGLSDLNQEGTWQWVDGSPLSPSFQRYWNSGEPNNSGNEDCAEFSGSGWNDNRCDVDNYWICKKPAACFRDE

L-SIGN ECD [2] = target: T1, L-SIGN ECD; test: SPR direct interaction experiments on oriented immobilized biotinylated ECD; conditions: read-out: apparent Kd for L-SIGN; Steady State Affinity model, ligands 2 nM to 500 nM
Procedure: For this experiment the extracellular domain (ECD) of DC-SIGN and L-SIGN were immobilized onto the SPR surface in an oriented manner, by their N-terminus, taking advantage of biotine/streptavidin interaction. To generate DC/L SIGN specifically biotinylated at the N-terminus, 3 glycine residues at the N-terminus of the protein were added by site directed mutagenesis in order to allow a sortaging procedure. The biotinylated versions of DC/L-SIGN ECDs (Biot-ECDs) were prepared by sortaging as described in Achilli, S., Monteiro, J. T., Serna, S., Mayer-Lambertz, S., Thépaut, M., Le Roy, A., Ebel, C., Reichardt, N.-C., Lepenies, B., Fieschi, F., and Vives, C. (2020) […], Artificial Tetrameric Lectins: A Tool to Screen Ligand and Pathogen Interactions. IJMS 21, 1-19 using a commercial synthetic biotinylated peptide,
To generate the oriented SPR surfaces, the flow cells were functionalized with Streptavidin in 10 mM Acetate buffer pH 4 and the remaining activated groups were blocked with 1 M ethanolamine pH 8. After blocking, the flow cells were treated with 100 μL of 10 mM HCl to remove non-specifically bound proteins and 100 μL of 50 mM NaOH/1M NaCl to expose surface to regeneration protocol. Priming of the surface was done using the running buffer (25 mM Tris pH 8, 150 mM NaCl, 4 mM CaCl2), 0.05% Tween). […] Surfaces are ready for interaction. […]

L-SIGN ECD [3] = target: T1, L-SIGN ECD; test: Isothermal Titration Calorimetry (ITC) with L-SIGN ECD
Procedure: The interaction of compound 106a with the L-SIGN receptor was also confirmed by Isothermal Titration Calorimetry (ITC) experiments (FIG. 2).
These experiments were carried out on a MicroCal PEAQ-ITC apparatus, at 25° C., in buffer A (25 mM Tris pH 8, 150 mM NaCl, 4 mM CaCl2). L-SIGN ECD (172 μM) was titrated with consecutive 2 μL injections of a 2 mM solution of compound 106a in Calcium buffer (30 μL of 20 mM compound 106a+270 μL of Calcium buffer).
The analysis was performed in triplicate and the graphs shown in FIG. 2 (which report, respectively, Differential Power (DP) vs. time, and ΔH vs. molar ratio) are representative of the average of the three experiments.

SMILES	IC50 (L-SIGN ECD [1])	selectivity for L-SIGN over DC-SIGN (L-SIGN ECD [1])	other results
OCC1O[C@H](OCCCl)C(n2cc(CNc3ncc[nH]3)nn2)C(O)[C@@H]1O (some centres unmarked) [Compound 115]	15 µM	up to 75 fold	
O=C[C@@H](O)[C@@H](O)[C@H](O)[C@H](O)CO [D-mannose, reference compound]	1940 µM		
OCC1O[C@H](OCCCl)C(n2cc(CNC3=NCCCN3)nn2)C(O)[C@@H]1O (some centres unmarked) [Compound 139]	12 µM	up to 94 fold	
N=C(N)NCc1cn(C2C(OCCn3cc(-c4cc(OCCOCCO)c(C#Cc5cc(OCCOCCO)c(C#Cc6cc(OCCOCCO)c(-c7cn(CCOC8OC(CO)C(O)C(O)C8n8cc(CNC(=N)N)nn8)nn7)cc6OCCOCCO)cc5OCCOCCO)cc4OCCOCCO)nn3)OC(CO)C(O)C2O)nn1 (centres unmarked) [Compound 133]			Kd (L-SIGN ECD [2]): 0.052 µM
OCC1O[C@H](OCCCl)C(n2cc(CNc3nc4ccccc4[nH]3)nn2)C(O)[C@@H]1O (some centres unmarked) [Compound 113]	48 µM	more selective against DC-SIGN	
N=C(N)NCc1cn([C@H]2C(OCCCl)OC(CO)[C@@H](O)[C@@H]2O)nn1 (some centres unmarked) [Compound 106a]	24 µM	up to 58 fold	inhibits the L-SIGN receptor better than D-mannose (L-SIGN ECD [1]): 80 times; inhibits the L-SIGN receptor better than compound 103 (L-SIGN ECD [1]; relative to compound 103 IC50): 11 times; Kd (L-SIGN ECD [3]): 12.8 ± 1.5 µM; enthalpy contribution (ΔH) of the interaction (L-SIGN ECD [3]; ITC): very favorable; stoichiometry of interaction between ligand and L-SIGN receptor (L-SIGN ECD [3]; ITC): 1,13
OCC1O[C@H](OCCCl)C(n2cc(CNc3ncc[nH]3)nn2)C(O)[C@@H]1O (some centres unmarked) [Compound 119]	18 µM		inhibits the L-SIGN receptor better than D-mannose (L-SIGN ECD [1]): over two orders of magnitude
N=C(N)NCc1cn(C2C(OCCn3cc(COCCOCCOCCn4cc(-c5cc(OCCOCCO)c(C#Cc6cc(OCCOCCO)c(C#Cc7cc(OCCOCCO)c(-c8cn(CCOCCOCCOCc9cn(CCOC%10OC(CO)C(O)C(O)C%10n%10cc(CNC(=N)N)nn%10)nn9)nn8)cc7OCCOCCO)cc6OCCOCCO)cc5OCCOCCO)nn4)nn3)OC(CO)C(O)C2O)nn1 (centres unmarked) [Compound 135]			Kd (L-SIGN ECD [2]): 0.025 µM
COc1ccc2[nH]c(NCc3cn(C4C(O)[C@H](O)C(CO)O[C@@H]4OCCCl)nn3)nc2c1 (some centres unmarked) [Compound 146]	52 µM		
NCc1cn(C2C(OCCCl)OC(CO)C(O)C2O)nn1 (centres unmarked) [Compound 103, reference compound]	278 µM		
